Laboratory results as given in patent US7585846B2, “Compounds for delivering amino acids or peptides with antioxidant activity into mitochondria and use thereof” (University of Rochester, priority 2003, dated 2009).

Columns and labels:
spinal cord neurons = assay: Oxidative stress-induced apoptosis (condensed and fragmented nuclei, Hoechst staining); type: cell-based
Source text: FIG. 3B is a control for FIG. 3A. FIG. 3C is a bar diagram summary of the percent of neurons with condensed fragmented nuclei after H2O2 treatment. The concentrations of H2O2 used are shown on the x-axis.
Central to the proposed therapeutic intervention is the belief that SCN undergo apoptosis and possibly necrosis under oxidative stress. […] Image pairs, obtained from H2O2-treated (FIG. 3A) and non-treated (FIG. 3B) SCN, are shown in both phase contrast and after Hoechst nuclear staining. Many of the neurons in FIG. 3A show condensed and fragmented nuclei (arrows) indicative of apoptotic cells. In contrast, control neurons in FIG. 3B show predominantly diffuse nuclear staining (arrows). […] This percentage increased to […] for 500 μM H2O2. […] These changes were concentration-dependent and increased by mtGSH depletion. […] In contrast, immunoreactivity to cytochrome C oxidase (COX), a marker in the inner mitochondrial membrane remains independent of the mitochondrial insults by H2O2 (FIG. 3E). The differential staining between Cyt C and COX affords a secondary method to assess whether a given neuron has undergone mitochondrial permeability transition (MPT).

[1] = system: cultured neonatal rat ventricular myocytes; assay: H2O2-induced depolarization of mitochondrial membrane potential (TMRM fluorescence) in myocytes; type: cell-based; details: for onset of H2O2-induced depolarization and loss of TMRM fluorescence: pretreatment 50 or 100 μM for 30 minutes
Procedure: TMRM is a lipophilic cation that partitions selectively into the negatively charged mitochondria Neonatal cultured myocytes (6 days in culture) were loaded with 10 nM TMRM for 60 minutes at 37° C. The myocytes were pretreated with either 50 or 100 μM Mito GSH or 100 μM non-targeted GSH for 30 minutes and then washed to remove the antioxidants from the solution in which myocytes were suspended. As a control, myocytes were not pretreated with any drug. TMRM was excited at 555 nm and fluorescence emission was detected at 590 nm. Fluorescence images were taken every 2 minutes. At the arrow, myocytes were subjected to oxidative stress by adding 50 μM H2O2. Plots were normalized to baseline, and are shown as F/Fo, where F is the emitted fluorescence at any given time and Fo is the baseline fluorescence before addition of H2O2. […] The traces were drawn from the mean values of 7-10 experiments.
TMRM was used as an indicator of mitochondrial membrane potential. The myocytes were pretreated with 50 μM Mito GSH for 30 minutes and then washed to remove the antioxidant from the solution in which myocytes were suspended. In control, myocytes were not pretreated with any drug. TMRM was excited at 555 nm and fluorescence emission was detected at 590 nm. Fluorescence images were taken every 2 minutes to avoid photobleaching and phototoxicity. Myocytes were subjected to oxidative stress by adding 50 μM H2O2.

brain striatal neurons = details: pretreatment 100 μM; 100 μM NMDA; DCF fluorescence
Procedure: Intracellular reactive oxygen species (ROS) were measured by using the redox-sensitive dye, dichlorohydrofluorescein (H2DCFDA). […] Cultured striatal neurons (10 days in culture) were loaded with 50 nM H2DCFDA for 25 min. The neurons were excited at 488 nm and the image was acquired at 515 nm wavelength. ROS production was induced by treating the neurons with 100 μM NMDA. An increase in DCFDA fluorescence by NMDA treatment reflected an increased production of ROS or oxidative stress. […] Plots were normalized to baseline, and are shown as F/Fo, where F is the emitted fluorescence at any given time and Fo is the baseline fluorescence before addition of NMDA. […] The traces were drawn from the mean values of 3 experiments.

Rat heart mitochondria [2] = assay: Mitochondrial membrane potential by TPP+ sensitive electrode under rotenone/t-BuOOH oxidative stress; type: biochemical; details: pretreatment 5 mM at 4° C. for 30 minutes; 5 μM rotenone and 100 μM t-BuOOH; TPP+ signal
Procedure: Mitochondrial membrane potential was measured by a TPP+ (tetraphenyl phosphonium) sensitive electrode. Rat heart mitochondria (1 mg protein/100 μl) were transferred to a beaker (at the first arrow) containing 0.9 ml of 150 mM KCl, 5 mM Hepes, 6 μM TPP+ and 5 mM succinate buffer. […] At the second arrow, mitochondria were subjected to oxidative stress by adding 5 μM rotenone (Complex I inhibitor) and 100 μM tert-butylhydroperoxide (t-BuOOH) to the buffer.

Rat heart mitochondria [3] = assay: Mitochondrial membrane potential by safranine fluorescence under rotenone/t-BuOOH oxidative stress; type: biochemical; details: pretreatment 5 mM for 30 minutes; 5 μM rotenone and 100 μM t-BuOOH
Procedure: Mitochondrial membrane potential was measured by safranine. Safranine is a positively charged dye that accumulates in mitochondria on establishment of an electrical potential across the mitochondrial inner membrane. However, its fluorescence is quenched by its accumulation in mitochondria in response to mitochondrial membrane potential. Rat heart mitochondria (0.2 mg protein/200 μl) were transferred to a well containing 0.3 ml of 150 mM KCl, 5 mM Hepes, 15 μM safranine, 5 mM succinate buffer, 5 μM rotenone and 100 μM t-BuOOH. The mitochondria were placed in a multiplate reader. Fluorescence measurements were made with excitation and emission wavelengths of 485 and 585 nm respectively. Rotenone and t-BuOOH induced mitochondrial membrane potential resulting in a release of intramitochondrial safranine indicated by an increase in fluorescence signal.

[4] = system: Male Sprague-Dawley rat hearts; details: 50 μM for 10 min prior to ischemia
Procedure: Male Sprague-Dawley rat hearts were retrograde (Langendorff) perfused with oxygenated Krebs Henseleit (KH) buffer in constant flow mode (12 mL/min/gram wet weight). Hearts were not electrically stimulated, and beat spontaneously at approximately 280 bpm. Left-ventricular pressure (LVP) was measured by a balloon inserted in the left ventricle, linked to a pressure transducer with digital recording at 500 Hz. […] Following an equilibration period of approximately 25 mm., global normothermic ischemia was imposed for 25 mm., followed by reperfusion for 30 mm as indicated by the arrows on the traces. For mNAC treatment, the drug was dissolved in KH buffer and infused via a port just above the aortic perfusion cannula, at a final concentration of 50 μM, for 10 min. prior to the onset of ischemia.
The ability of mitochondrially targeted N-acetylcysteine (mNAC) to improve post-ischemic recovery in rat heart was assessed. Male Sprague-Dawley rat hearts were retrograde (Langendorff) perfused with oxygenated Krebs Henseleit (KH) buffer in constant flow mode (12 mL/min/gram wet weight). Hearts were not electrically stimulated, and beat spontaneously at approximately 280 beats per minute. Left-ventricular pressure (LVP) was measured by a balloon inserted in the left ventricle, linked to a pressure transducer with digital recording at 500 Hz. […]

In the case of `C=CC(O)CC(=O)O` (stereo not shown) [3-HP, 3-hydroxy-4-pentenoate], the “cells with condensed and fragmented nuclei” value (spinal cord neurons; mtGSH depletion by 3-HP prior to 250 μM H2O2 treatment) is reported as 70%.

`N[C@@H](CCC(=O)N[C@@H](CS)C(=O)NCC(=O)O)C(=O)O` [GSH, glutathione, reference compound] was tested, and the “time for onset of H2O2-induced depolarization (versus control)” value (“time for onset … (versus control)” for short) ([1]; pretreatment 100 μM) was “did not significantly increase the time for onset of H2O2-induced depolarization”.

`OO` [H2O2] was tested, and the “neurons with condensed and fragmented nuclei” value (spinal cord neurons; 250 μM H2O2) was about 42%.

With `C[N+](C)(C)CCOC(=O)CNC(=O)[C@H](CS)NC(=O)CC[C@H](N)C(=O)O.[Cl-]` [Mito GSH, Glutathione choline ester chloride] the “NMDA-induced increase in ROS production” value (brain striatal neurons) was “prevented NMDA-induced increase in ROS production”, the “time for onset … (versus control)” value ([1]; pretreatment 50 μM) was “significantly enhanced the time for onset of H2O2-induced depolarization” and the “time to which TMRM fluorescence persisted after H2O2 treatment” value ([1]; pretreatment 50 μM for 30 minutes, 50 μM H2O2, control invisible at 32 minutes) was 50 min. The “time for onset … (versus control)” value ([1]; pretreatment 100 μM) was “significantly enhanced the time for onset of H2O2-induced depolarization”, the “Time for onset of H2O2-induced depolarization” value ([1]; pretreatment 100 μM, control 25±3.2 min) was 53 ± 3.6 min and the “onset of H2O2-induced depolarization and loss of TMRM fluorescence” value ([1]; 50 μM H2O2) was “delayed onset of H2O2-induced depolarization and loss of TMRM fluorescence”. For the same molecule, the “oxidative stress-induced depolarization of mitochondrial membrane potential” value (“oxidative stress-induced depolarization” below) (Rat heart mitochondria [2]) was “prevented the oxidative stress-induced depolarization significantly”.

`CC(=O)N[C@@H](CSC(C)=O)C(=O)OCC[N+](C)(C)C` [N,S-acetyl cysteine choline ester, S,N-acetyl-L-cysteine choline ester] was tested, and the “release of intramitochondrial safranine (depolarization of mitochondrial membrane potential)” value (Rat heart mitochondria [3]) was “diminished the release of intramitochondrial safaranine”.

In the case of `C[N+](C)(C)CCOC(=O)[C@@H](N)CS.[Cl-]` [cysteine choline ester, [2-(2-Amino-3-mercapto-L-propionyloxy)-ethyl]-trimethyl-ammonium chloride], the “oxidative stress-induced depolarization” value (Rat heart mitochondria [2]) is reported as “prevented the oxidative stress-induced depolarization significantly”.

In the case of `CC(=O)N[C@@H](CS)C(=O)OCC[N+](C)(C)C` [mNAC, N-acetyl-L-cysteine choline ester], the “onset of H2O2-induced depolarization and loss of TMRM fluorescence” value ([1]; 50 μM H2O2) is reported as “delayed onset of H2O2-induced depolarization and loss of fluorescence”, the “onset of ischemic contracture” value [4] is reported as “appeared to delay the onset of ischemic contracture” and the “overall recovery of LV developed pressure (systolic minus diastolic)” value ([4]; 25 min global ischemia, 30 min reperfusion, control 4.1%) is reported as 15.7%. For the same molecule, the “oxidative stress-induced depolarization” value (Rat heart mitochondria [2]) was “prevented the oxidative stress-induced depolarization significantly”.
